Like-named read-outs stand apart in the source and are kept apart here.
Tests used:
[1] = biological target: T1, rat liver HMG-CoA reductase (Rattus norvegicus, UniProt P51639); assay: Test A: In Vitro Inhibition of Microsomal HMG-CoA Reductase; assay type: biochemical; details: microsomal rat liver enzyme; [3-14C]-HMG-CoA 0.33 mM, NADPH 3.0 mM; pH 7.2
T1 construct: from tissue; host or cells: rat liver microsomes
T1 sequence (P51639 1-887): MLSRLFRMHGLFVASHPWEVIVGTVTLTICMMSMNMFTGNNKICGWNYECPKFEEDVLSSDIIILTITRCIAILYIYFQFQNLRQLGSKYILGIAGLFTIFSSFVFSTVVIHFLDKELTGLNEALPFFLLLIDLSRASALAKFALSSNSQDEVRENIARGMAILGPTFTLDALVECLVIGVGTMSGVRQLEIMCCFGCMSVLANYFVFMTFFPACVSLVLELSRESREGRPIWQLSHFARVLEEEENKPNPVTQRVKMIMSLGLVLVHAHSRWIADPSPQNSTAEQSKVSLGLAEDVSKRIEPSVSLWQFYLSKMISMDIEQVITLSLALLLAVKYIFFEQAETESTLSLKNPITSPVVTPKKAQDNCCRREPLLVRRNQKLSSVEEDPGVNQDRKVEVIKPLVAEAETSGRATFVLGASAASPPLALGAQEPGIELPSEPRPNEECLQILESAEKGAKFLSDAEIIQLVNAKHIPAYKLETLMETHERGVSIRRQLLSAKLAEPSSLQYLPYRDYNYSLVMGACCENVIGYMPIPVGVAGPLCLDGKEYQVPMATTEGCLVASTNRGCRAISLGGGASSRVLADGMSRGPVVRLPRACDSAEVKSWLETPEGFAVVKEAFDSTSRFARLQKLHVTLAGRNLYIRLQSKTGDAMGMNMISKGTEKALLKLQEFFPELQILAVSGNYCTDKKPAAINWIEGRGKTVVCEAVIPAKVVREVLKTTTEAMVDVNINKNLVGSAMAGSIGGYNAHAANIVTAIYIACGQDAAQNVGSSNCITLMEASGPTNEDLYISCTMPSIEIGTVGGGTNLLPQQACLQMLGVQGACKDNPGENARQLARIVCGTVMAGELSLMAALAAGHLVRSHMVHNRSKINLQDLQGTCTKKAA
Description: Test A: In Vitro Inhibition of Microsomal HMG-CoA Reductase:
The intact, fully activated microsomal form of rat liver HMG-CoA reductase (subunit MW ca 100,000 daltons) was prepared as described by Parker, et al., Biochem. Biophys. Res. Commun., 125, 629-635 (1984), and used as the source of enzyme for assays. HMG-CoA reductase activity was determined essentially by the method of Shapiro, et al., Biochem. Biophys. Acta., 370, 369-377 (1974), with modifications as described by Ingebritsen and Gibson, Meth. Enzymol. 71, 486-497 (1981) with the exception that the internal standard ^3 H-mevalonolactone is added after termination of the assay. In this procedure, the enzyme is assayed by measuring the formation of product, ^14 C-mevalonate, from the substrate, [3-^14 C]-HMG-CoA, in the presence of NADPH. The ^14 C-mevalonate is converted to its lactone and isolated by silica thin-layer chromatography (Whatman LK5D, developed in 50:50 benzene:acetone) in the presence of ^3 H-mevalonolactone as an internal standard. Assays were conducted under conditions in which product formation was linear with respect to time and enzyme concentration.
To measure reductase inhibition, test compounds dissolved in water or dimethylsulfoxide and diluted in buffer A (50 mM imidazole-HCl, 250 mM NaCl, 1 mM EDTA, 1 mM EGTA, 5 mM DTT, 20 μM leupeptin, pH=7.2) were incubated with aliquots of microsomes (80-160 μg protein in buffer A) followed by addition of d,1-[3-^14 C]-HMG-CoA (0.33 mM, 2.0 dpm/picomole) and NADPH (3.0 mM). The 50 percent inhibitory concentration (IC50) for each compound in Table 1 was calculated from the linear regression line of the percent decrease (from control) in enzyme activity vs. log concentration of inhibitor, determined using at least 4 dilutions of each test compound assayed in duplicate.

[2] = system: Isolated Hepatocyte Cholesterol Biosynthesis; assay: Test B: Isolated Hepatocyte Cholesterol Biosynthesis Assay; assay type: cell-based, male Wistar rats; details: isolated rat hepatocytes, 10 min preincubation, 60 minutes at 37°, incorporation into sterols, read-out: Inhibition of Isolated Hepatocyte Cholesterol Biosynthesis IC50
Description: Test B: Isolated Hepatocyte Cholesterol Biosynthesis Assay:
Intact parenchymal hepatocytes were isolated from male Wistar rats (180-280 g) fed cholestyramine-containing or normal diet, using the collagenase perfusion method essentially as described by Seglen, in Methods in Cell Biology (D. Prescott, ed.) Vol. 13, pp. 29-83, Academic Press, New York (1976). Cell preparations were used only when viability (trypan blue exclusion) exceeded 90%. Cholesterol biosynthesis was determined as the incorporation by hepatocytes of ^3 H from [^3 H]-water into total (cellular plus medium) 3β-hydroxy sterols as per Ingebritsen, et al., J. Biol. Chem., 254, 9986-9989 (1979). Hepatocyte sterols and lipids were isolated by a modification of the methods described by Kates, in Techniques in Lipidology, (M. Kates, ed.), pp. 349, 360-363, North Holland Publ. Co., Amsterdam, 1972. […] The ^3 H-labelled sterols are quantified by liquid scintillation and corrected for counting efficiency. […]
Cells were preincubated for 10 minutes with or without aliquots of test compounds added as water solutions of sodium salts or as dimethylsulfoxide solutions of lactones. […] The IC50 for inhibition of sterol synthesis by test compounds which is shown in Table 2 was calculated from the linear regression curve of % inhibition (compared to controls) vs. log concentration using at least 4 concentrations of inhibitor. […]

[3] = system: de novo biosynthesis of cholesterol; assay: Test C: In Vivo Acute Cholesterol Biosynthesis Inhibition in Rats; set-up: species or system male Wistar rats; details: Rattus norvegicus, 1 h
Description: Test C: In Vivo Acute Cholesterol Biosynthesis Inhibition in Rats:
Male Wistar rats (160-200 g, housed 2 per cage) were maintained on normal diet (Purina Rat Chow and water, ad libitum) for at least 7 days on a reversed lighting schedule (7:00 a.m. to 5:00 p.m. dark). Food was removed 15 hours prior to dosing. Compounds were administered at 8:00 a.m. by intragastric intubation using 0.5-1.0 mL of water or propylene glycol solutions of sodium salts, lactones, or esters of the test compounds. Controls received equal volumes of the vehicle.
Thirty minutes after receiving the test substances, rats were injected intraperitoneally with 0.9 mL of 0.9% NaCl containing approximately 120 μCi per kg body weight of sodium [1-^14 C] acetate (1-3 mCi/mmol). After a 60 minute incorporation period, rats were sacrificed and liver and blood samples were obtained. Aliquots of plasma (1.0 mL) obtained by centrifugation of heparin+EDTA-treated blood, and aliquots of liver homogenates (equivalent to 0.50 g liver wet weight) were taken for determination of radiolabeled 3β-hydroxy sterols. Sterol isolation for the liver samples followed the method of Kates as described above for the hepatocyte procedure (Test B) while the plasma samples were directly saponified followed by isolation of the digitonin-precipitable sterols. ^14 C-labelled sterols were quantified by liquid scintillation counting (efficiency corrected). Mean percent inhibition of ^14 C incorporated into liver and into plasma cholesterol were calculated for groups of treated animals and compared to mean values for controls conducted simultaneously.
Therefore, Test C provides information on the ability of test substances to suppress the de novo biosynthesis of cholesterol in vivo in rats with oral dosing.

IC50 [1]	SMILES	IC50 [2]	ED50 ([3]; read-out: 50% Inhibitory Dose (ED50), liver cholesterol, oral (intragastric), liver, 14C-acetate incorporation 60 minutes)	ED50 ([3]; read-out: 50% Inhibitory Dose (ED50), plasma cholesterol, oral (intragastric), plasma, 14C-acetate incorporation 60 minutes)	ED50 ([3]; oral (intragastric), 14C-acetate incorporation 60 minutes, read-out: ED50 value (reference agent, tissue not stated))
> 330000 nM	CCOC(=O)C[C@H](O)C[C@H](O)/C=C/C(=C(c1ccc(F)cc1)c1ccc(F)cc1)c1nnnn1C (relative stereo) [Example 11, Ethyl (±)-erythro-9,9-bis(4-fluorophenyl)-3,5-dihydroxy-8-(1-methyl-1H-tetrazol-5-yl)-6,8-nonadienoate]				
37 ± 10 nM	Cn1nnnc1C(/C=C/[C@@H](O)C[C@@H](O)CC(=O)O)=C(c1ccc(F)cc1)c1ccc(F)cc1 (relative stereo) [Example 12, Sodium (±)-erythro-9,9-bis(4-fluorophenyl)-3,5-dihydroxy-8-(1-methyl-1H-tetrazol-5-yl)-6,8-nonadionate]	23 ± 11 nM	0.08 mg/kg	0.08 mg/kg	
1090 ± 290 nM	Cn1nnnc1C(/C=C/[C@@H]1C[C@@H](O)CC(=O)O1)=C(c1ccc(F)cc1)c1ccc(F)cc1 (relative stereo) [Example 13, Trans-6-[4,4-bis(4-fluorophenyl)-3-(1-methyl-1H-tetrazol-5-yl)-1,3-butadienyl]-tetrahydro-4-hydroxy-2H-pyran-2-one]				
5700 nM	Cn1nnnc1C(/C=C/C=C/[C@@H](O)C[C@@H](O)CC(=O)O)=C(c1ccc(F)cc1)c1ccc(F)cc1 (relative stereo) [Example 15, Sodium (±)-erythro-11,11-bis(4-fluorophenyl)-3,5-dihydroxy-10-(1-methyl-1H-tetrazol-5-yl)-6,8,10-undecatrienoate]				
	CC[C@H](C)C(=O)O[C@H]1C[C@@H](C)C=C2C=C[C@H](C)[C@H](CC[C@@H]3C[C@@H](O)CC(=O)O3)[C@H]21 [Mevinolin (Lovastatin), reference compound]	46 ± 26 nM			0.04 mg/kg

— US4897490A, “Antihypercholesterolemic tetrazole compounds” (Bristol-Meyers Company, priority 1988, dated 1990)
